# Experimental data reported in patent publication US7501513B2, “Immunosuppressive effects of pteridine derivatives” (4 AZA Bioscience NV, priority 2003, dated 2009).
# System: Peripheral blood mononuclear cells
# Test: Mixed lymphocyte reaction (MLR) test
# Assay type: cell-based, human
# Details: Homo sapiens, PBMC; Table 3; 50% suppression of the MLR
# Description: Pteridine derivatives were first dissolved (10 mM) in dimethylsulfoxide (hereinafter referred as DMSO) and further diluted in culture medium before use for the following in vitro experiments. The commercially available culture medium consisted of RPMI-1640+10% foetal calf serum (FCS). Some pteridine derivatives described the previous examples were tested in the following lymphocyte activation tests:
# (§1) Peripheral blood mononuclear cells (hereinafter referred as PBMC) were isolated from heparinized peripheral blood by density gradient centrifugation over Lymphoprep (Nycomed, Maorstua, Norway). Allogeneic PBMC or Eppstein-Barr Virus-transformed human B cells [commercially available under the trade name RPMI1788 (ATCC name CCL156)] which strongly express B7-1 and B7-2 antigens were used as stimulator cells after irradiation with 30 Gy. MLR was performed in triplicate wells. After 5 days incubation at 37° C., 1 μCi [^3H]-thymidine was added to each cup. After a further 16 hours incubation, cells were harvested and counted in a β-counter. Inhibition of proliferation by a compound (drug) described in some of the previous examples was counted using the formula:
# (§2) [formula] wherein cpm is the thymidine count per minute. The MLR assay is regarded by those skilled in the art as an in vitro analogue of the transplant rejection since it is based on the recognition of allogeneic major histocompatibility antigens on the stimulator leukocytes, by responding lymphocytes. Assays for CD3 and CD 28
# Pteridine derivatives were first dissolved (10 mM) in dimethylsulfoxide (hereinafter referred as DMSO) and further diluted in culture medium before use for the following in vitro experiments. The commercially available culture medium consisted of RPMI-1640+10% foetal calf serum (FCS). Some pteridine derivatives described in the previous examples (as indicated in table 3 below) were tested in the following mixed lymphocyte reaction (MLR) assay.
# as §1, with “CCL156)]which” for “CCL156)] which”
# as §2, with “lymphocytes.” for “lymphocytes. Assays for CD3 and CD 28”
row,IC50,Structure (SMILES)
1,4.1 µM,"Nc1cccc(-c2cnc3nc(N)nc(N4CCOCC4)c3n2)c1 [Example 75, 2-amino-4-morpholino-6-(3-aminophenyl)pteridine]"
2,2.1 µM,"Nc1nc(N2CCOCC2)c2nc(-c3ccc(NC(=O)c4ccccc4)cc3)cnc2n1 [Example 76, 2-amino-4-morpholino-6-(4-benzoylaminophenyl)pteridine]"
3,2.5 µM,"Nc1nc(N2CCOCC2)c2nc(-c3ccc(NC(=O)COc4ccccc4)cc3)cnc2n1 [Example 77, 2-amino-4-morpholino-6-(4-phenoxyacetylaminophenyl)pteridine]"
4,6.5 µM,"CCC(=O)Nc1ccc(-c2cnc3nc(N)nc(N4CCOCC4)c3n2)cc1 [Example 78, 2-amino-4-morpholino-6-(4-propionylaminophenyl)pteridine]"
5,4.1 µM,"Nc1nc(N2CCOCC2)c2nc(-c3ccc(NC(=O)C4CCCCC4)cc3)cnc2n1 [Example 80, 2-amino-4-morpholino-6-(4-cyclohexanoylaminophenyl)pteridine]"
6,3.9 µM,"Nc1nc(N2CCOCC2)c2nc(-c3ccc(NC(=O)c4ccncc4)cc3)cnc2n1 [Example 83, 2-amino-4-morpholino-6-(4-isonicotinoylaminophenyl)pteridine]"
7,4.9 µM,"Nc1nc(N2CCOCC2)c2nc(-c3cccc(NC(=O)c4ccccc4)c3)cnc2n1 [Example 88, 2-amino-4-morpholino-6-(3-benzoylaminophenyl)pteridine]"
8,0.8 µM,"Nc1nc(N2CCOCC2)c2nc(-c3cccc(NS(=O)(=O)c4ccccc4)c3)cnc2n1 [Example 89, 2-amino-4-morpholino-6-(3-benzensulfonylaminophenyl)pteridine]"
9,10 µM,"Nc1nc(N2CCOCC2)c2nc(-c3cccc(NC(=O)COc4ccccc4)c3)cnc2n1 [Example 90, 2-amino-4-morpholino-6-(3-phenoxyacetylaminophenyl)pteridine]"
10,10 µM,"Nc1nc(N2CCOCC2)c2nc(-c3cccc(NC(=O)c4ccncc4)c3)cnc2n1 [Example 91, 2-amino-4-morpholino-6-(3-isonicotinoylaminophenyl)pteridine]"
11,2.9 µM,"Nc1nc(N2CCOCC2)c2nc(-c3cccc(NC(=O)C4CCCCC4)c3)cnc2n1 [Example 92, 2-amino-4-morpholino-6-(3-cyclohexanoylaminophenyl)pteridine]"
12,4.1 µM,"Nc1nc(N2CCOCC2)c2nc(-c3cccc(NC(=O)COCc4ccccc4)c3)cnc2n1 [Example 96, 2-amino-4-morpholino-6-(3-benzyloxyacetylaminophenyl)pteridine]"
13,5.4 µM,"COCCOc1ccc(-c2cnc3nc(N)nc(N4CCOCC4)c3n2)cc1 [Example 110, 2-amino-4-morpholino-6-(4-(2-methoxyethoxy)-phenyl)pteridine]"

# Same assay, conditions: Table 3; 50% suppression of the MLR
row,IC50,Structure (SMILES)
1,0.8 µM,"COc1ccc(-c2cnc3nc(NCc4cccs4)nc(NCc4cccs4)c3n2)cc1OC [Example 68, 2,4-di-(thienyl-2-methylamino)-6-(3,4-dimethoxy-Phenyl) pteridine]"
2,6.4 µM,"CC(=O)Nc1cccc(-c2cnc3nc(N)nc(N4CCOCC4)c3n2)c1 [Example 73, 2-amino-4-morpholino-6-(3-acetanilide)pteridine]"
3,7.8 µM,"Nc1nc(N2CCOCC2)c2nc(-c3ccc(NC(=O)c4ccco4)cc3)cnc2n1 [Example 79, 2-amino-4-morpholino-6-(4-furoylaminophenyl)pteridine]"
4,4 µM,"Nc1nc(N2CCOCC2)c2nc(-c3ccc(NC(=O)c4cccc5ccccc45)cc3)cnc2n1 [Example 84, 2-amino-4-morpholino-6-(4-naphtoylaminophenyl)pteridine]"
5,4.1 µM,"CC(C)(C)OC(=O)N[C@H](Cc1ccccc1)C(=O)Nc1cccc(-c2cnc3nc(N)nc(N4CCOCC4)c3n2)c1 [Example 99, 2-amino-4-morpholino-6-[3-Boc-(D)-phenylalanine-aminophenyl]pteridine]"

# System: human TNF-α
# Test: TNF-α assay: suppression of TNF-α production by LPS-stimulated PBMC (ELISA)
# Assay type: cell-based
# Details: Homo sapiens, PBMC; Table 2; LPS 1 μg/ml, 72 hours
# Description: (§3) Peripheral blood mononuclear cells (herein referred as PBMC), in response to stimulation by lipopolysaccharide (LPS), a gram-negative bacterial endotoxin, produce various […], in particular human TNF-α and IL-1 β. Inhibition of the activation of PBMC can therefore be measured by the level of suppression of the production of TNF-α or IL-1 β by PBMC in response to stimulation by LPS.
# (§4) Such inhibition measurement was performed as follows: PBMC were isolated from heparinized peripheral blood by density gradient centrifugation over Lymphoprep (commercially available from Nycomed, Norway). LPS was then added to the PMBC suspension in complete medium (10^6 cells/ml) at a final concentration of 1 μg/ml. The pteridine derivative to be tested was added at different concentrations (0.1 μM, 1 μM and 10 μM) and the cells were incubated at 37° C. for 72 hours in 5% CO2. The supernatants were collected, then TNF-α and/or IL-1 β concentrations were measured with respectively an anti-TNF-α antibody or an anti-IL-1 β antibody in a sandwich ELISA (Duo Set ELISA human TNFα, commercially available from R&D Systems, United Kingdom). The calorimetric reading of the ELISA was measured by a Multiskan RC plate reader (commercially available from ThermoLabsystems, Finland) at 450 nm (reference wavelength: 690 nm). Data analysis was performed with Ascent software 2.6. (also from ThermoLabsystems, Finland): a standard curve (recombinant human TNFα) was drawn and the amount (pg/ml) of each sample on the standard curve was determined.
# The % suppression of human TNFα production or human IL-1 β by the pteridine derivatives of the invention (drugs) was calculated using the formula: […]
# as §3, with “(hereinafter LPS),” for “(LPS),”, “TNF-α.” for “TNF-α and IL-1 β.”, “TNF-α” for “TNF-α or IL-1 β”
# as §4, with “TNF-α” for “TNF-α and/or IL-1 β”, “with” for “with respectively”, “anti-TNF-α” for “anti-TNF-α antibody or an anti-IL-1 β”, “TNF-α,” for “TNFα,”, “colorimetric” for “calorimetric”
# The % suppression of human TNFα production by the pteridine derivatives of the invention (drugs) was calculated using the formula: […]
row,IC50,Structure (SMILES)
1,4.5 µM,"CCOc1nc(N)nc2ncc(-c3ccc(OC)cc3)nc12 [Example 13, 2-amino-6-(p-methoxyphenyl)-4-ethoxy-pteridine]"
2,> 10 µM,"CCOc1nc(N)nc2ncc(-c3ccccc3OC)nc12 [Example 14, 2-amino-6-(o-methoxyphenyl)-4-ethoxy-pteridine]"
3,9.1 µM,"CC(C)Oc1nc(N)nc2ncc(-c3ccc(C(F)(F)F)cc3)nc12 [Example 36, 2-amino-6-(p-trifluoromethylphenyl)-4-isopropoxypteridine]"
4,6.6 µM,"CC(C)Oc1nc(N)nc2ncc(-c3ccc(F)c(F)c3)nc12 [Example 37, 2-amino-6-(3,4-difluorophenyl)-4-isopropoxypteridine]"
5,> 10 µM,"CCOc1ccc(-c2cnc3nc(N)nc(OC(C)C)c3n2)cc1 [Example 39, 2-amino-6-(p-ethoxyphenyl)-4-isopropoxypteridine]"
6,6.3 µM,"CC(C)Oc1nc(N)nc2ncc(-c3ccc(C#N)cc3)nc12 [Example 42, 2-amino-6-(p-cyanophenyl)-4-isopropoxypteridine]"

# Same assay, conditions: Table 2; LPS 1 μg/ml, 72 hours
row,IC50,Structure (SMILES)
1,4 µM,"CC(C)Oc1nc(N)nc2c1ncc[n+]2[O-] [Example 10, 2-amino-4-isopropoxypteridine-N^8-oxide]"
2,6.2 µM,COc1ccc(-c2cnc3nc(N)nc(OC(C)C)c3n2)cc1 [Example 38]

# Same assay, conditions: Table 4; LPS 1 μg/ml, 72 hours
row,IC50,Structure (SMILES)
1,5.5 µM,"CCOC(=O)CCC(=O)Nc1cccc(-c2cnc3nc(N)nc(N4CCOCC4)c3n2)c1 [Example 94, 2-amino-4-morpholino-6-(3-ethylsuccinylaminophenyl)pteridine]"
2,0.9 µM,"CCOC(=O)CCCOc1ccc(-c2cnc3nc(N)nc(N4CCOCC4)c3n2)cc1 [Example 108, 2-amino-4-morpholino-6-(4-phenoxy-butyric acid ethyl ester) pteridine]"
3,0.6 µM,"CCOC(=O)COc1ccc(-c2cnc3nc(N)nc(N4CCOCC4)c3n2)cc1 [Example 109, 2-amino-4-morpholino-6-(4-phenoxy-acetic acid ethyl ester) pteridine]"
4,6.5 µM,COc1ccc(-c2cnc3nc(N)nc(NCc4ccccc4)c3n2)cc1OC [Example 113]
5,0.5 µM,COc1ccc(-c2cnc3nc(N)nc(N4CC=CCC4)c3n2)cc1OC [Example 117]
